Data taken from patent US20110195949A1, “2-BENZOTHIOPHENYL- AND 2-NAPHTHYL-OXAZOLIDINONES AND THEIR AZAISOSTERE ANALOGUES AS ANTIBACTERIAL AGENTS” (ACTELION PHARMACEUTICALS LTD., priority 2008, published 2011).
In brackets after ≈: the same amount, converted by molar mass.

system: M. catarrhalis A894; experiment: Minimal inhibitory concentration (MIC), microdilution method in cation-adjusted Mueller-Hinton Broth (CLSI M7-A7); type: cell-based; settings: Moraxella catarrhalis, strain A894
Description: Minimal inhibitory concentrations (MICs; mg/L) were determined in cation-adjusted Mueller-Hinton Broth by a microdilution method following the description given in “Methods for Dilution Antimicrobial Susceptibility Tests for Bacteria that Grow Aerobically”, Approved standard, 7th ed., Clinical and Laboratory Standards Institute (CLSI) Document M7-A7, Wayne, Pa., USA, 2006. All Example compounds were tested against several Gram positive and Gram negative bacteria such as S. aureus, E. faecalis, S. pneumoniae, M. catarrhalis, A. baumanii, E. coli or P. aeruginosa.

Row | Structure (SMILES) | MIC [µg/mL]
1 | O=C1CSc2ccc(N3CC(CCCNCc4ccc5ccccc5n4)OC3=O)cc2N1 (racemic) [Example 1, rac-6-(2-oxo-5-{3-[(quinolin-2-ylmethyl)-amino]-propyl}-oxazolidin-3-yl)-4H-benzo[1,4]thiazin-3-one] | 0.5 (≈ 1.11 µM)
2 | O=C1CSc2ccc(N3CC(CCCNCc4ccc5ccc(F)cc5n4)OC3=O)cc2N1 (racemic) [Example 2, rac-6-(5-{3-[(7-fluoro-quinolin-2-ylmethyl)-amino]-propyl}-2-oxo-oxazolidin-3-yl)-4H-benzo[1,4]thiazin-3-one] | 0.031 (≈ 0.0664 µM)
3 | O=C1CSc2ccc(N3CC(CCCNCc4ccc5c(F)cccc5n4)OC3=O)cc2N1 (racemic) [Example 7, rac-6-(5-{3-[(5-fluoro-quinolin-2-ylmethyl)-amino]-propyl}-2-oxo-oxazolidin-3-yl)-4H-benzo[1,4]thiazin-3-one] | 0.063 (≈ 0.135 µM)
4 | Cc1c(CNCCCC2CN(c3ccc4c(c3)NC(=O)CS4)C(=O)O2)sc2ccccc12 (racemic) [Example 8, rac-6-(5-{3-[(3-methyl-benzo[b]thiophen-2-ylmethyl)-amino]-propyl}-2-oxo-oxazolidin-3-yl)-4H-benzo[1,4]thiazin-3-one] | 0.063 (≈ 0.135 µM)
5 | O=C1CSc2ccc(N3CC(CCCNCc4cc5cccnc5s4)OC3=O)cc2N1 (racemic) [Example 9, rac-6-(2-oxo-5-{3-[(thieno[2,3-b]pyridin-2-ylmethyl)-amino]-propyl}-oxazolidin-3-yl)-4H-benzo[1,4]thiazin-3-one] | 0.125 (≈ 0.275 µM)
6 | O=C1CSc2ccc(N3CC(CCCNCc4cc5nccnc5s4)OC3=O)cc2N1 (racemic) [Example 10, rac-6-(2-oxo-5-{3-[(thieno[2,3-b]pyrazin-6-ylmethyl)-amino]-propyl}-oxazolidin-3-yl)-4H-benzo[1,4]thiazin-3-one] | 0.25 (≈ 0.549 µM)
7 | O=C1CSc2ccc(N3CC(CCCNCc4cnc5ccccc5c4)OC3=O)cc2N1 (racemic) [Example 11, rac-6-(2-oxo-5-{3-[(quinolin-3-ylmethyl)-amino]-propyl}-oxazolidin-3-yl)-4H-benzo[1,4]thiazin-3-one] | 4 (≈ 8.92 µM)
8 | O=C1CSc2ccc(N3CC(CCCNCc4ccc5ccccc5c4)OC3=O)cc2N1 (racemic) [Example 12, rac-6-(5-{3-[(naphthalen-2-ylmethyl)-amino]-propyl}-2-oxo-oxazolidin-3-yl)-4H-benzo[1,4]thiazin-3-one] | 1 (≈ 2.23 µM)
9 | O=C1CSc2ccc(N3CC(CCCNCc4ccc5cccnc5c4)OC3=O)cc2N1 (racemic) [Example 13, rac-6-(2-oxo-5-{3-[(quinolin-7-ylmethyl)-amino]-propyl}-oxazolidin-3-yl)-4H-benzo[1,4]thiazin-3-one] | 0.5 (≈ 1.11 µM)
10 | O=C1CSc2ccc(N3CC(CCCNCc4ccc5ncccc5c4)OC3=O)cc2N1 (racemic) [Example 14, rac-6-(2-oxo-5-{3-[(quinolin-6-ylmethyl)-amino]-propyl}-oxazolidin-3-yl)-4H-benzo[1,4]thiazin-3-one] | 1 (≈ 2.23 µM)
11 | O=C1COc2ccc(N3C[C@@H](CCCNCc4ccc5ccccc5n4)OC3=O)cc2N1 [Example 4, 6-((R)-2-oxo-5-{3-[(quinolin-2-ylmethyl)-amino]-propyl}-oxazolidin-3-yl)-4H-benzo[1,4]oxazin-3-one] | 0.063 (≈ 0.146 µM)
12 | COc1ccc2ccc(OCC3CCN(C[C@@H]4CN(c5ccc6c(c5)NC(=O)CS6)C(=O)O4)CC3)nc2c1 [Example 18, 6-{(R)-5-[4-(7-methoxy-quinolin-2-yloxymethyl)-piperidin-1-ylmethyl]-2-oxo-oxazolidin-3-yl}-4H-benzo[1,4]thiazin-3-one] | 0.5 (≈ 0.935 µM)
13 | COc1ccc2ncc(OCC3CN(C[C@@H]4CN(c5ccc6c(c5)OCCO6)C(=O)O4)C3)nc2c1 [Example 19, (R)-3-(2,3-dihydro-benzo[1,4]dioxin-6-yl)-5-[3-(7-methoxy-quinoxalin-2-yloxymethyl)-azetidin-1-ylmethyl]-oxazolidin-2-one] | 0.25 (≈ 0.522 µM)
14 | O=C1CSc2ccc(N3C[C@@H](CNCCc4ccc5ccccc5n4)OC3=O)cc2N1 [Example 24, 6-{(R)-2-oxo-5-[(2-quinolin-2-yl-ethylamino)-methyl]-oxazolidin-3-yl}-4H-benzo[1,4]thiazin-3-one] | 0.031 (≈ 0.0713 µM)
15 | O=C1CSc2ccc(N3C[C@@H](CCCNCCc4ccc5ccccc5n4)OC3=O)cc2N1 [Example 25, 6-{(R)-2-oxo-5-[3-(2-quinolin-2-yl-ethylamino)-propyl]-oxazolidin-3-yl}-4H-benzo[1,4]thiazin-3-one] | 0.125 (≈ 0.27 µM)
16 | O=C1COc2ccc(N3C[C@@H](CCNCCNc4ccc5ccccc5n4)OC3=O)cc2N1 [Example 26, 6-((R)-2-oxo-5-{2-[2-(quinolin-2-ylamino)-ethylamino]-ethyl}-oxazolidin-3-yl)-4H-benzo[1,4]oxazin-3-one] | 0.25 (≈ 0.559 µM)
17 | O=C1CSc2ccc(N3C[C@@H](CNCCNCc4ccc5ccccc5n4)OC3=O)cc2N1 [Example 27, 6-[(R)-2-oxo-5-({2-[(quinolin-2-ylmethyl)-amino]-ethylamino}-methyl)-oxazolidin-3-yl]-4H-benzo[1,4]thiazin-3-one] | 1 (≈ 2.16 µM)
18 | O=C1CSc2ccc(N3C[C@@H](CN4CCN(Cc5ccc6ccccc6n5)CC4)OC3=O)cc2N1 [Example 28, 6-[(R)-2-oxo-5-(4-quinolin-2-ylmethyl-piperazin-1-ylmethyl)-oxazolidin-3-yl]-4H-benzo[1,4]thiazin-3-one] | 0.063 (≈ 0.129 µM)

Next, values leading:

Row | MIC [µg/mL] | Structure (SMILES)
19 | ≤ 0.031 | O=C1CSc2ccc(N3CC(CCCNCc4cc5ncccc5cc4F)OC3=O)cc2N1 (racemic) [Example 6, rac-6-(5-{3-[(6-fluoro-quinolin-7-ylmethyl)-amino]-propyl}-2-oxo-oxazolidin-3-yl)-4H-benzo[1,4]thiazin-3-one]
20 | ≤ 0.031 | O=C1COc2ccc(N3C[C@@H](CCCNCc4ccc5ccc(F)cc5n4)OC3=O)cc2N1 [Example 3, 6-((R)-5-{3-[(7-fluoro-quinolin-2-ylmethyl)-amino]-propyl}-2-oxo-oxazolidin-3-yl)-4H-benzo[1,4]oxazin-3-one]
21 | ≤ 0.031 | O=C1CSc2ccc(N3C[C@H](CNCCCc4ccc5ccccc5n4)OC3=O)cc2N1 [Example 5, 6-{(S)-2-oxo-5-[(3-quinolin-2-yl-propylamino)-methyl]-oxazolidin-3-yl}-4H-benzo[1,4]thiazin-3-one]
22 | ≤ 0.031 | O=C1CSc2ccc(N3C[C@@H](CCNCc4ccc5ccccc5n4)OC3=O)cc2N1 [Example 15, 6-((R)-2-oxo-5-{2-[(quinolin-2-ylmethyl)-amino]-ethyl}-oxazolidin-3-yl)-4H-benzo[1,4]thiazin-3-one]
23 | ≤ 0.031 | O=C1CSc2ccc(N3C[C@@H](CCNCCc4ccc5ccccc5n4)OC3=O)cc2N1 [Example 16, 6-{(R)-2-oxo-5-[2-(2-quinolin-2-yl-ethylamino)-ethyl]-oxazolidin-3-yl}-4H-benzo[1,4]thiazin-3-one]
24 | ≤ 0.031 | COc1ccc2ccc(OC[C@@H]3CCN(C[C@@H]4CN(c5ccc6c(c5)NC(=O)CS6)C(=O)O4)C3)nc2c1 [Example 17, 6-{(R)-5-[(R)-3-(7-methoxy-quinolin-2-yloxymethyl)-pyrrolidin-1-ylmethyl]-2-oxo-oxazolidin-3-yl}-4H-benzo[1,4]thiazin-3-one]
25 | ≤ 0.031 | COc1ccc2ncc(OCC3CN(CC[C@@H]4CN(c5ccc6c(c5)NC(=O)CS6)C(=O)O4)C3)nc2c1 [Example 20, 6-((R)-5-{2-[3-(7-methoxy-quinoxalin-2-yloxymethyl)-azetidin-1-yl]-ethyl}-2-oxo-oxazolidin-3-yl)-4H-benzo[1,4]thiazin-3-one]
26 | ≤ 0.031 | COc1ccc2ncc(OCC3CN(C[C@@H]4CN(c5ccc6c(c5)NC(=O)CS6)C(=O)O4)C3)nc2c1 [Example 21, 6-{(R)-5-[3-(7-methoxy-quinoxalin-2-yloxymethyl)-azetidin-1-ylmethyl]-2-oxo-oxazolidin-3-yl}-4H-benzo[1,4]thiazin-3-one]
27 | ≤ 0.031 | COc1ccc2ncc(OCC3CN(C[C@@H]4CN(c5ccc6c(c5)NC(=O)CO6)C(=O)O4)C3)nc2c1 [Example 22, 6-{(R)-5-[3-(7-methoxy-quinoxalin-2-yloxymethyl)-azetidin-1-ylmethyl]-2-oxo-oxazolidin-3-yl}-4H-benzo[1,4]oxazin-3-one]
28 | ≤ 0.031 | COc1ccc2ccc(OC3CC(NC[C@@H]4CN(c5ccc6c(c5)NC(=O)CS6)C(=O)O4)C3)nc2c1 (stereo partly drawn) [Example 23, 6-((R)-5-{[3-(7-methoxy-quinolin-2-yloxy)-cyclobutylamino]-methyl}-2-oxo-oxazolidin-3-yl)-4H-benzo[1,4]thiazin-3-one]
29 | ≤ 0.031 | COc1cnc2cc(CNCCC[C@H]3CN(c4ccc5c(c4)NC(=O)CS5)C(=O)O3)c(F)cc2n1 [Example 29, 6-((S)-5-{3-[(7-fluoro-2-methoxy-quinoxalin-6-ylmethyl)-amino]-propyl}-2-oxo-oxazolidin-3-yl)-4H-benzo[1,4]thiazin-3-one]
